Experimental data reported in US20040029736A1, “Promoting early establishment of potato crops by ethylene inhibitors” (Valent BioSciences Corporation, priority 2002, published 2004).
Where two headings read alike, the source gives them in different places.

Key:
potato microtubers = conditions: potato explants treated during initiation and growth phases of microtuber development; Suttle 1998; cited from earlier work
potato tubers [1] = test: Example 5: sprout number and emergence from soil of MCP gas-treated potato tubers at 10° C. (Table 5); assay type: in vivo, Solanum tuberosum Linn; conditions: for number of emerged sprouts per potato tuber: 50 ppm MCP; for % Emergence / Sprouts/Tuber: 50 ppm MCP for 20 hr, in soil
Protocol: Potato tubers were treated with 50 ppm MCP in a closed plastic drum (30 gallon) for 20 hr and untreated potatoes served as the control. Each treatment consisted of 9 potato tubers. The treated potatoes were then planted in soil in plastic trays and placed in a ventilated chamber at 10° C. […]

potato tubers [2] = conditions: cited from earlier work; for release from dormancy and sprouting of potato tubers: literature (Alam 1994; Minato 1979; Rama 1981; Rylski 1974)
potato tubers [3] = test: Example 4: sprout number and length of potato tubers dipped in AVG or ethephon (Table 4); assay type: in vivo, Solanum tuberosum Linn; conditions: 1000 ppm ethephon dip; for Sprout length (cm) / Sprouts/potato: 20° C., in soil, dark chamber, 21 days after treatment
Protocol: Potato tubers were dipped in 2000 ppm AVG or 1000 ppm ethephon solution and water-dipped potatoes served as the control. Each treatment consisted of 9 potato tubers. The treated potatoes were then put in plastic trays and placed in dark ventilated chamber at 20° C. […]

[4] = Gold Rush, 15 days after treatment
[5] = Gold Rush, 18 days after treatment
[6] = Norkotah, 15 days after treatment
[7] = Norkotah, 18 days after treatment
[8] = Russet Burbank, 15 days after treatment
[9] = Russet Burbank, 18 days after treatment
[10] = Superior, 15 days after treatment
[11] = Superior, 18 days after treatment

## C1=CC2C=CC1C2 [2,5-norbomadiene]
Potato microtubers
  sprouting of microtubers: caused precocious sprouting

## CC1=CC1 [MCP, 1-methylcyclopropene]
Potato tubers [1]; Russet Burbank, Norkotah, and Gold Rush
  number of emerged sprouts per potato tuber: increased
Potato tubers [1]; Superior
  number of emerged sprouts per potato tuber: not
Potato tubers [1]; [4]
  % Emergence: 44%
  Sprouts/Tuber: 0.8 B
Potato tubers [1]; [5]
  % Emergence: 56%
  Sprouts/Tuber: 1.3 B
Potato tubers [1]; [6]
  % Emergence: 78%
  Sprouts/Tuber: 1.7 B
Potato tubers [1]; [7]
  % Emergence: 78%
  Sprouts/Tuber: 2.0 B
Potato tubers [1]; [8]
  % Emergence: 100%
  Sprouts/Tuber: 2.4 B
Potato tubers [1]; [9]
  % Emergence: 100%
  Sprouts/Tuber: 2.9 B
Potato tubers [1]; [10]
  % Emergence: 89%
  Sprouts/Tuber: 1.2 A
Potato tubers [1]; [11]
  % Emergence: 89%
  Sprouts/Tuber: 1.6 A

## O=P(O)(O)CCCl [ethephon, 2-chloroethyl phosphonic acid]
Potato tubers [2]
  release from dormancy and sprouting of potato tubers: enhances release from dormancy and increases sprouting
Potato tubers [3]; Russet Burbank and Superior
  sprouting: stimulate sprouting
Potato tubers [3]; potato tubers
  sprout elongation: did not
Potato tubers [3]; Russet Burbank
  Sprout length (cm): 15.6 A cm
  Sprouts/potato: 10.8 B
Potato tubers [3]; Superior
  Sprout length (cm): 16.8 AB cm
  Sprouts/potato: 9.9 B

## C=C [ethylene]
Potato tubers [2]
  release from dormancy and sprouting of potato tubers: enhances release from dormancy and increases sprouting
Potato tubers [2]; literature (Minato 1979; Rylski 1974)
  sprout elongation: inhibit sprout elongation

## O=[N+]([O-])[O-].[Ag+] [silver nitrate]
Potato microtubers
  sprouting of microtubers: caused precocious sprouting
